Assay results from patent US20260315653A1, “ANTICOAGULANT COMPOSITIONS COMPRISING ANTI-PLATELET AND ANTI-INFLAMMATORY DRUGS AND METHODS AND DEVICES FOR THEIR USE” (Elixir Medical Corporation, priority 2023, published 2026).
Read-outs that look alike come from different tables or passages of the source. One block for each compound: values may come before it.

Columns and labels:
[1] = system: blood clotting (citrated sheep blood); test: Net activated clotting time (net ACT) in citrated sheep blood (Examples 3-5); set-up: key: seconds; measured ACT minus blood control ACT (165 s); settings: single drug, blood control 165 seconds
Protocol: The activated clotting time (ACT) evaluation of anticoagulants was performed in calcium citrate sheep blood and recorded employing the Hemochron® Response device. The ACT measurements were made in citrated sheep blood. 1.9 ml of citrated sheep blood was added to a test tube containing an activator (Hemochron@Celite@ ACT tubes, Lot F8FTE026 from Accriva Diagnostics, Inc.). A target amount of drug solution was then added into the test tube. The test tube was gently swirled so that the blood and drug were well-mixed. 0.1 ml of 0.3M calcium chloride was then added. The tube was gently shaken before being inserted into the Hemochron Response detector. The ACT read out was recorded and reported. The ACT of the control blood in the absence of any drug as first determined to establish a baseline. Here the blood control measured is 165 seconds. Then ACT was determined in the presence of different concentrations of the drug as a single component. In the following study, the net ACT (measured ACT minus blood control ACT) was utilized to visualize the synergistic effect of direct factor Xa inhibitor (Rivaroxaban) and direct factor IIa inhibitor (Argatroban) drug combinations. The figures are presented in ng/mg wherein the density of blood and tissue are approximately the same.
Example 4 is the continuation of example 3, which employed the same method as in example 3. The only difference is that the direct factor Xa inhibitor Edoxaban is used in place of direct factor Xa inhibitor Rivaroxaban.
Example 5 is the continuation of example 3, which employed the same method as in example 3. The only difference is that the direct factor Xa inhibitor Betrixaban is used in place of direct factor Xa inhibitor Rivaroxaban.

[2] = system: porcine coronary artery; test: In vivo porcine coronary stent implantation: fibrin score and late lumen loss (Examples 25-26); settings: Table 9, day 7
Protocol: The drug eluting stent systems containing different anticoagulants prepared as described in Example 11 were evaluated at 3 hours, 6 hours, 1 day, 3 days, 6 days, 7 days, or 28 days following implantation in a porcine coronary artery model.
The porcine model was chosen as this model has been used extensively for stent and angioplasty studies resulting in a large volume of data on the vascular response properties and its correlation to human vascular response (Schwartz et al, Circulation. 2002; 106:1867 1873). The animals were housed and cared for in accordance with the Guide for the Care and Use of Laboratory Animals as established by the National Research Council.
After induction of anesthesia, the left or right femoral artery was accessed using standard techniques and an arterial sheath was introduced and advanced into the artery. Vessel angiography was performed under fluoroscopic guidance, a 7 Fr. guide catheter was inserted through the sheath and advanced to the appropriate location where intracoronary nitroglycerin was administered. An appropriate implantation segment of coronary artery was randomly selected and a 0.014″ guidewire inserted. Quantitative Coronary Angiography (QCA) was performed to document the results. The appropriately size stent was advanced to the deployment site. The balloon was inflated at a steady rate to a pressure sufficient to achieve a balloon to artery ratio of approximately 1.1 to 1.0.
Follow up angiography was performed at the designated timepoint for each of the animals. Late lumen loss (LLL) can be expressed as: […]
The LLL is an indicator of the amount smooth muscle cell (SMC) proliferation or inhibition. It is used to measure efficacy between drugs for SMC proliferation inhibition. The smaller the LLL, the better the efficacy of the drug.
Stented portions of coronary arteries were embedded in methyl methacrylate (MMA), then divided into a target of at least three blocks of approximately similar lengths for histology evaluation. Quantitative histopathological evaluation of stented artery sections was then performed and scored as indicated. For Fibrin formation, scores ranged from 0 to 3, with a score of 0 indicating absent or rare minimal spotting around struts of the stent, a score of 1 indicating the presence of fibrin in small amounts localized only around the struts, a score of 2 indicating the moderately abundant or denser presence of fibrin around and extending beyond the struts, and a score of 3 indicating the presence of abundant and dense fibrin and/or bridging of the fibrin between the struts. The mean score was calculated and reported. The mean of each section was then averaged to provide a mean fibrin score per stent. The smaller the fibrin score, the better efficacy.

[3] = system: blood clotting (fresh pig blood); test: Activated clotting time (ACT) of EDTA or analogues in fresh pig blood (Example 12); settings: for Increase in clotting time compared to control: control 154 sec; for blood coagulation compared to the blood control: EDTA 200 ng/mg, sodium salts 300 ng/mg
Protocol: The activated clotting time (ACT) evaluation of EDTA or analogues was performed in fresh pig blood and recorded employing the Hemochron® Response device.
(§1) The ACT measurements were made in fresh pig blood. 1.0 ml of fresh pig blood was added to a test tube containing an activator (Hemochron@Celite@ ACT tubes, Lot F8FTE026 from Accriva Diagnostics, Inc.). A target amount of drug solution was then added into the test tube. The test tube was gently swirled so that the blood and drug was well-mixed. 0.1 ml of 0.3M calcium chloride was then added. The tube was gently shaken before being inserted into the Hemochron Response detector. The ACT read out was recorded and reported. The ACT of the control blood in the absence of any drug as first determined to establish a baseline. Then ACT was determined in the presence of different concentrations of EDTA or analogues as a single component.

[4] = system: blood clotting (heparinized sheep blood); test: Net ACT initiated by platelet activation factor (PAF) and CaCl2 in heparinized sheep blood (Examples 6-11)
Protocol: In order to examine the potential synergistic effects between anti-inflammatory agents, direct factor Xa inhibitors, direct factor IIa inhibitors, antiplatelets (P2Y12 inhibitor and glycoprotein IIb/IIIa inhibitor, platelet activation factor and CaCl2 were utilized by measuring ACT. Heparinized sheep blood was used to preserve platelet function.
The activated clotting time (ACT) evaluation initiated by platelet activation factor (PAF) and calcium chloride (CaCl2) was performed in heparinized sheep blood and recorded employing the Hemochron® Response device. […] A target amount of drug solution was then added into the test tube. The test tube was gently swirled so that the blood and drug were well-mixed. […] The tube was gently shaken before being inserted into the Hemochron Response detector. The ACT read out was recorded and reported. The ACT of the control heparinized sheep blood in the absence of any drug as first measured to establish a baseline. […] Then ACT was measured in the presence of different concentrations of the drug measured. Selected drug combinations were then tested to evaluate for potential synergy in action between the drug combination. The net ACT (ACT minus blood control ACT) was utilized to visualize the synergistic effect. […] The figures are presented in ng/mg wherein the density of blood and tissue are approximately the same.

[5] = system: blood clotting (citrated sheep blood); test: Activated clotting time (ACT) of EDTA or other anti-coagulant compounds in citrated sheep blood (Example 13)
Protocol: The activated clotting time (ACT) evaluation of anticoagulants was performed in Calcium-reconstituted sheep blood and recorded employing the Hemochron® Response device.
as §1, with “citrated sheep” for “fresh pig”, “1.9” for “1.0”, “EDTA or other anti-coagulant compounds” for “drug”

[6] = pH of 1 mg/ml EDTA or analogue in water or phosphate buffer; format: physicochemical; settings: 1 mg/ml in 0.01 M pH 7.4 phosphate buffer, 21.8-22.3 ° C.
[7] = as above; format: physicochemical
Text: Based on the pH of EDTA or analogues in water and in 0.1M phosphate buffered saline as show in Table 2, EDTA disodium salt or dipotassium salt has a pH close to neutral pH in human body (6.42-6.92), whereas EDTA tetrasodium or trisodium has a very basic pH (>8.0) in human body. EDTA disodium or dipotassium is preferred in the examples.

[8] = single drug, 0.05 ng/mg, PAF & CaCl2, blood control 235 seconds
[9] = 167 ng/mg, blood control 202 sec
[10] = 1 mg/ml in d-water, 21.8-22.0 ° C.

Compound: CN1CCc2nc(C(=O)N[C@@H]3C[C@@H](C(=O)N(C)C)CC[C@@H]3NC(=O)C(=O)Nc3ccc(Cl)cn3)sc2C1 [Edoxaban]
net ACT ([1]; 0.15 ng/mg): 42 | net ACT ([1]; 0.3 ng/mg): 87

Compound: Dalteparin
LLL / smooth muscle cell proliferation compared to bare metal control stents [2]: larger LLLs compared to control | inhibition of fibrin formation compared to bare metal control stents [2]: not effective at inhibiting fibrin formation

Compound: O=C(O)C(S)C(S)C(=O)O (stereo not drawn) [Dimercaptosuccinic acid (DMSA), Dimercaptosuccinic acid]
Clotting time (ACT) ([3]; 200 ng/mg): 151 s | Increase in clotting time compared to control ([3]; 200 ng/mg): -3 s

Compound: CCCCS(=O)(=O)N[C@@H](Cc1ccc(OCCCCC2CCNCC2)cc1)C(=O)O [Tirofiban]
net ACT [4, 8]: 9 s

Compound: CCCCCCCCCCCCCC[N+](C)(C)Cc1ccccc1.[Cl-] [Benzyldimethyltetradecyl-ammonium chloride]
Clotting time (ACT) ([5]; 67 ng/mg): 316 s | Increase in clotting time compared to control ([5]; 67 ng/mg): 114 s | Clotting time (ACT) ([5]; 100 ng/mg): 421 s | Increase in clotting time compared to control ([5]; 100 ng/mg): 219 s | Clotting time (ACT) ([5]; 133 ng/mg): 983 s | Increase in clotting time compared to control ([5]; 133 ng/mg): 781 s | Clotting time (ACT) [5, 9]: 1370 s | Increase in clotting time compared to control [5, 9]: 1168 s

pH [6]: 7.77 | pH [7, 10]: 9.21 | pH ([7]; in water and phosphate buffered saline): > 8.0
Compound: O=C(O)CN(CCN(CC(=O)O)CC(=O)O)CC(=O)O [EDTA tri sodium]

Compound: O=C(O)CN(CCN(CC(=O)O)CC(=O)O)CC(=O)O [EDTA, ethylenediaminetetraacetic acid]
Clotting time (ACT) ([3]; 75 ng/mg): 179 s | Increase in clotting time compared to control ([3]; 75 ng/mg): 25 s | Clotting time (ACT) ([3]; 100 ng/mg): 247 s | Increase in clotting time compared to control ([3]; 100 ng/mg): 93 s | Clotting time (ACT) ([3]; 150 ng/mg): 275 s | Increase in clotting time compared to control ([3]; 150 ng/mg): 121 s | Clotting time (ACT) ([3]; 200 ng/mg): >500 s | Increase in clotting time compared to control ([3]; 200 ng/mg): >346 s | blood coagulation compared to the blood control [3]: significant delayed blood coagulation

pH ([6]; listed as EDTA disodium): 6.92 | pH ([7]; 1 mg/ml in d-water, 21.8-22.0 ° C., listed as EDTA disodium): 6.42 | pH ([7]; in water and phosphate buffered saline, listed as EDTA disodium salt): 6.42-6.92
Compound: O=C(O)CN(CCN(CC(=O)O)CC(=O)O)CC(=O)O [EDTA•2Na•2H2O]
Clotting time (ACT) ([3]; 100 ng/mg): 191 s | Increase in clotting time compared to control ([3]; 100 ng/mg): 37 s | Clotting time (ACT) ([3]; 200 ng/mg): 264 s | Increase in clotting time compared to control ([3]; 200 ng/mg): 110 s | Clotting time (ACT) ([3]; 300 ng/mg): 374 s | Increase in clotting time compared to control ([3]; 300 ng/mg): 220 s | blood coagulation compared to the blood control ([3]; listed as EDTA disodium salt): The same trend

Compound: CCCSc1nc(N[C@@H]2C[C@H]2c2ccc(F)c(F)c2)c2nnn([C@@H]3C[C@H](OCCO)[C@@H](O)[C@H]3O)c2n1 [Ticagrelor]
net ACT [4, 8]: 18 s

pH [6]: 6.93 | pH [7, 10]: 6.25 | pH ([7]; in water and phosphate buffered saline, listed as dipotassium salt): 6.42-6.92
Compound: O=C(O)CN(CCN(CC(=O)O)CC(=O)O)CC(=O)O [EDTA dipotassium]

Compound: COc1ccc(NC(=O)c2ccc(C(=N)N(C)C)cc2)c(C(=O)Nc2ccc(Cl)cn2)c1 [Betrixaban]
net ACT ([1]; 0.3 ng/mg): 21

Compound: COc1cc2c(c(OC)c1OC)-c1ccc(OC)c(=O)cc1[C@@H](NC(C)=O)CC2 [Colchicine]
net ACT [4]: 41 s

Compound: CC(=O)OCOC(=O)CN(CCN(CC(=O)OCOC(C)=O)CC(=O)OCOC(C)=O)CC(=O)OCOC(C)=O [EDTA tetra acetoxymethyl ester]
Clotting time (ACT) ([3]; 500 ng/mg): 158 s | Increase in clotting time compared to control ([3]; 500 ng/mg): 4 s
